The values that follow come from patent US6407116B1, “Nitrogenous fused-ring compounds, process for the preparation of the same, and drugs” (Takeda Chemical Industries, Inc., priority 1997, dated 2002).

Counter-ions that a name gives are not always drawn.

Data set [1] concerns histamine-induced dermal vascular hyperpermeability. The data set can be described thus: Effect on histamine-induced dermal vascular hyperpermeability in guinea pigs. The class given is in vivo, guinea pig. Conditions: 3 mg/kg oral administration, 1 hour before intradermal histamine, male Hartley guinea pigs; for inhibition in vivo at 3 mg/kg: Cavia porcellus. On the procedure:
Effect on Histamine-induced Dermal Vascular Hyperpermeability in Guinea Pigs
Male Hartley guinea pigs (weighing about 500 g) were used. […] After 30 minutes, the animal was hit on its head to make it unconscious, and cut at its neck to sacrifice by exsanguination. The dorsal skin was peeled and examined for the long and short diameters (mm) of each blue spot which were then multiplied to give a product, which was averaged to give a vascular permeability index. Each substance was suspended in 5% gum arabic solution, and given orally in the volume of 0.2 ml/100 g body weight 1 hour before histamine administration. Control animals received the same volume of 5% gum arabic solution. A % inhibition of this reaction was calculated according to [Equation 1].
% Inhibition of histamine-induced dermal vascular hyperpermeability=100×(1-vascular permeability index in treatment group/vascular permeability index in control group) [Equation 1]

For the next data set, the system named is guinea-pig eosinophils. Description: Chemotaxis inhibition assay: LTB4-induced chemotaxis in guinea-pig eosinophils. It is filed as cell-based. Conditions: test substance 1×10^−5 M, LTB4 10^−8 M, 2 hours; for inhibition at 10 µM: Cavia porcellus, Eosinophil. On the procedure: 1) Guinea-pig Eosinophil Preparation
Male Hartley guinea-pigs received 2 ml of equine serum (Bio-Whittaker, Inc) intraperitoneally once a week for successive 8 weeks. 48 hours after the last administration, 75 ml of physiological saline was injected into the peritoneal cavity, and the fluid was recovered and centrifuged at 400 G for 5 minutes. […] Erythrocytes in the isolated cell pellet, if any, were removed by hypotonic treatment (suspended in water for 30 seconds).
2) Chemotaxis Inhibition Assay
600 μl of LTB4 suspended in Hanks-Hepes-HSA (final concentration of 10^−8 M, Cascade Biochemical Ltd.) was placed in the lower compartment of a 24-well plate and kept at 37° C. for 30 minutes in a CO2 gas incubator. After mounting a Chemotaxicell (polycarbonate membrane, pore size 3 μm, thickness 10 μm), which served as an upper compartment, on the 24-well plate described above, 200 μl of eosinophil suspension (5×10^6 cells/ml), which had been incubated at 37° C. for 15 minutes in a thermostat chamber, was added to the upper compartment. After allowing to react for 2 hours in the CO2 gas incubator, the Chemotaxicell was removed, and 60 μl of 2% (w/v) EDTA solution in physiological saline was added to the lower compartment. After cooling on ice, the cells which underwent the chemotaxis into the lower compartment were counted using a blood cell counter (Coulter Counter (trade name)). In the procedure described above, the test substance was dissolved in N,N-dimethylformamide (DMF) and added to the upper and lower compartments at the final concentration of 10^−5 M.
% Chemotaxis inhibition=[…] [Equation 2]
The results are shown in [Table 2].

By inhibition in vivo is commonly meant the share of the control response that was lost under treatment. High values mean a response far below the control, low ones a response near the control. As usually defined, the inhibition is the relative decrease from the control value, in per cent. Usually melting point stands for the temperature of the solid-liquid transition. Take `O=c1[nH]c(=O)n(CCCCN2CCC(OC(c3ccccc3)c3ccccc3)CC2)c2ccccc12` [Example 2, 2,4-Dioxo-1-[4-(4-diphenylmethoxy-1-piperidinyl)butyl]-1,2,3,4-tetrahydroquinazoline]: the melting point was in the range of 131 to 133 °C. In data set [1], this compound displayed an inhibition in vivo at 3 mg/kg of 88%. Besides, in the data set with guinea-pig eosinophils, the inhibition at 10 µM was 91%.
`O=c1[nH]c(=O)n(CCCCN2CCC(OC(c3ccccc3)c3ccccc3)CC2)c2ccc([N+](=O)[O-])cc12` [Example 12, 2,4-Dioxo-1-[4-(4-diphenylmethoxypiperidino)butyl]-6-nitro-1,2,3,4-tetrahydroquinazoline] registered a melting point of 211 to 213 °C. Besides, 3 mg/kg produced 80% inhibition in vivo in data set [1]. Besides, testing at 10 µM in the data set on guinea-pig eosinophils gave an inhibition of 66%.
`CCOC(=O)C(C)(C)n1c(=O)c2ccccc2n(CCCCN2CCC(OC(c3ccccc3)c3ccccc3)CC2)c1=O.Cl` [Example 27]: the “Inhibition of histamine-induced dermal vascular hyperpermeability (%)” value in data set [1] is recorded as 94%. The “Inhibition (%) of LTB4-induced chemotaxis” value in the data set with guinea-pig eosinophils is 52%.
The matching figures for `COC(=O)C(C)(C)n1c(=O)c2ccccc2n(CCCCN2CCC(OC(c3ccccc3)c3ccccc3)CC2)c1=O.Cl` [Example 30]: 88% and 77%.
`CCOC(=O)C(C)(C)n1c(=O)c2cc(F)ccc2n(CCCCN2CCC(OC(c3ccccc3)c3ccccc3)CC2)c1=O` [Example 33, Ethyl 2-[1-[4-(4-diphenylmethoxypiperidino)butyl]-2,4-dioxo-6-fluoro-1,2,3,4-tetrahydroquinazolin-3-yl]isobutyrate hydrochloride]: in data set [1], 3 mg/kg produced 88% inhibition in vivo. The compound further displayed an inhibition at 10 µM in the data set on guinea-pig eosinophils of 54%.
As to `Nc1ccc2c(c1)c(=O)[nH]c(=O)n2CCCCN1CCC(OC(c2ccccc2)c2ccccc2)CC1` [Example 40, 6-Amino-2,4-dioxo-1-[4-(4-diphenylmethoxypiperidino)butyl]-1,2,3,4-tetrahydroquinazoline], the melting point was 131 to 133 °C. In data set [1], this compound displayed an inhibition in vivo at 3 mg/kg of 90%.
The matching figures for `O=C(O)CCn1c(=O)c2ccccc2n(CCCCN2CCC(OC(c3ccccc3)c3ccccc3)CC2)c1=O` [Example 52, 2,4-Dioxo-1-[4-(4-diphenylmethoxypiperidino)butyl]-1,2,3,4-tetrahydroquinazoline-3-propionic acid]: 107 to 108 °C and 88%.
As to `O=C(O)CCCCn1c(=O)c2ccccc2n(CCCCN2CCC(OC(c3ccccc3)c3ccccc3)CC2)c1=O` [Example 60, 2,4-Dioxo-1-[4-(4-diphenylmethoxypiperidino)butyl]-1,2,3,4-tetrahydroquinazoline-3-valeric acid], in data set [1], 3 mg/kg produced 93% inhibition in vivo. The compound further showed an inhibition at 10 µM with guinea-pig eosinophils of 65%.
In the case of `N#CCCCCn1c(=O)c2ccccc2n(CCCCN2CCC(OC(c3ccccc3)c3ccccc3)CC2)c1=O` [Example 93, 2,4-Dioxo-1-[4-(4-diphenylmethoxypiperidino)butyl]-1,2,3,4-tetrahydroquinazoline-3-valeronitrile], the inhibition in vivo at 3 mg/kg in data set [1] is 84%. In the data set with guinea-pig eosinophils, this compound showed an inhibition at 10 µM of 62%.
Regarding `CCOC(=O)CCCCn1c(=O)c2ccccc2n(CCCCN2CCC(OC(c3ccccc3)c3ccccc3)CC2)c1=O` [Example 94, Ethyl 2,4-dioxo-1-[4-(4-diphenylmethoxypiperidino)butyl]-1,2,3,4-tetrahydroquinazoline-3-valerate hydrochloride], 3 mg/kg produced 83% inhibition in vivo in data set [1].
`CCOC(=O)CCCCCn1c(=O)c2ccccc2n(CCCCN2CCC(OC(c3ccccc3)c3ccccc3)CC2)c1=O.Cl` [Example 95, Ethyl 2,4-dioxo-1-[4-(4-diphenylmethoxypiperidino)butyl]-1,2,3,4-tetrahydroquinazoline-3-hexanoate hydrochloride] came in with a melting point of 149 to 151 °C. Further, 3 mg/kg produced 85% inhibition in vivo in data set [1].
With `CC(C)(C(=O)O)n1c(=O)c2ccccc2n(CCCCN2CCC(OC(c3ccccc3)c3ccccc3)CC2)c1=O` [Example 120, 2-[2,4-Dioxo-1-[4-(4-diphenylmethoxypiperidino)butyl]-1,2,3,4-tetrahydroquinazolin-3-yl]isobutyric acid hydrochloride], in data set [1], the inhibition in vivo at 3 mg/kg is 86%.
Still for that read-out and setting: under `CC(C)(C(=O)O)n1c(=O)c2cc(F)ccc2n(CCCCN2CCC(OC(c3ccccc3)c3ccccc3)CC2)c1=O` [Example 124, 2-[2,4-Dioxo-1-[4-(4-diphenylmethoxypiperidino)butyl]-6-fluoro-1,2,3,4-tetrahydroquinazolin-3-yl]isobutyric acid hydrochloride] stands 90%; under `CC(C)(C(=O)O)n1c(=O)c2cc(F)c(F)cc2n(CCCCN2CCC(OC(c3ccccc3)c3ccccc3)CC2)c1=O` [Example 125, 2-[2,4-Dioxo-1-[4-(4-diphenylmethoxypiperidino)butyl]-6,7-difluoro-1,2,3,4-tetrahydroquinazolin-3-yl]isobutyric acid hydrochloride], 81%.
